# ChEMBL document CHEMBL5370655
# The source made the active and inactive calls. The rule behind the calls is not given here.
# Experiments:
# [1] = MRT (0 to infinity) in Sprague-Dawley rat at 5 mg/kg, iv measured upto 24 hrs by HPLC-MS/MS analysis; assay type: ADME, organism-based; settings: in vivo
# H1975-TM [2] = settings: Homo sapiens, dose 10-500 nM, time 10.0 day
# [3] = Induction of cell cycle arrest in human H1975-TM cells assessed as accumulation at S phase at 50 nM measured after 24 hrs by RNase A/propidium iodide staining based flow cytometric analysis (reference value: 18.1 %); assay type: functional
# [4] = Induction of apoptosis in human H1975-TM cells assessed as apoptotic cells at 500 nM measured after 24 by Annexin V-FITC and propidium iodide staining based flow cytometric analysis (reference value: 7.08 %); assay type: functional; settings: time 24 hrs
# [5] = Antitumor activity against human H1975-TM cells xenografted in BALB/c mouse assessed as tumor growth inhibition at 25 mg/kg, po measured after 25 days; assay type: functional; settings: time 25 day
# PC-9 [6] = assay: Antiproliferative activity against human PC-9 cells assessed as inhibition of cell growth measured after 72 hrs by CCK8 assay; assay type: functional, cell-based; settings: PC-9, 72 h
# [7] = Induction of apoptosis in human H1975-TM cells assessed as apoptotic cells at 50 nM measured after 24 by Annexin V-FITC and propidium iodide staining based flow cytometric analysis (reference value: 7.08 %); assay type: functional; settings: time 24 hrs
# [8] = Toxicity in BALB/c mouse xenografted with human H1975-TM cells assessed as appearance of lesions in liver at 25 to 100 mg/kg, po measured after 25 days by hematoxylin-eosin staining based analysis; assay type: organism-based; settings: in vivo, 600 h, dose 25-100 mg/kg, time 25 day
# [9] = Half life in Sprague-Dawley rat at 50 mg/kg, po measured upto 24 hrs by HPLC-MS/MS analysis; assay type: ADME, organism-based; settings: in vivo
# [10] = molecular target: Epidermal growth factor receptor (Homo sapiens, UniProt P00533)
# Description: Inhibition of wild-type EGFR (unknown origin) using polyE4Y1 as substrate incubated for 5 mins with compound followed by substrate addition measured after 60 mins in presence of ATP by ADP-Glo reagent based assay
# [11] = Induction of cell cycle arrest in human H1975-TM cells assessed as accumulation at S phase at 250 nM measured after 24 hrs by RNase A/propidium iodide staining based flow cytometric analysis (reference value: 18.1 %); assay type: functional
# [12] = AUC (0 to infinity) in Sprague-Dawley rat at 5 mg/kg, iv measured upto 24 hrs by HPLC-MS/MS analysis; assay type: ADME, organism-based; parameters: dose 5 mg/kg, time < 24 hrs, route iv; settings: in vivo
# [13] = Toxicity in BALB/c mouse xenografted with human H1975-TM cells assessed as appearance of lesions in kidney at 25 to 100 mg/kg, po measured after 25 days by hematoxylin-eosin staining based analysis; assay type: organism-based; settings: in vivo, 600 h, dose 25-100 mg/kg, time 25 day
# [14] = molecular target: Epidermal growth factor receptor (Homo sapiens, UniProt P00533, L858R)
# [15] = Toxicity in BALB/c mouse xenografted with human H1975-TM cells assessed as appearance of lesions in lung at 25 to 100 mg/kg, po measured after 25 days by hematoxylin-eosin staining based analysis; assay type: organism-based; settings: in vivo, 600 h, dose 25-100 mg/kg, time 25 day
# [16] = Cmax in Sprague-Dawley rat at 5 mg/kg, iv measured upto 24 hrs by HPLC-MS/MS analysis; assay type: ADME, organism-based; parameters: time < 24 hrs, dose 5 mg/kg, route iv; settings: in vivo
# [17] = Oral bioavailability in Sprague-Dawley rat at 50 mg/kg measured upto 24 hrs by HPLC-MS/MS analysis; assay type: ADME, organism-based; settings: in vivo
# [18] = Toxicity in BALB/c mouse xenografted with human H1975-TM cells assessed as appearance of lesions in spleen at 25 to 100 mg/kg, po measured after 25 days by hematoxylin-eosin staining based analysis; assay type: organism-based; settings: in vivo, 600 h, dose 25-100 mg/kg, time 25 day
# [19] = AUC (0 to infinity) in Sprague-Dawley rat at 50 mg/kg, po measured upto 24 hrs by HPLC-MS/MS analysis; assay type: ADME, organism-based; parameters: dose 50 mg/kg, time < 24 hrs, route po; settings: in vivo
# [20] = Cmax in Sprague-Dawley rat at 50 mg/kg, po measured upto 24 hrs by HPLC-MS/MS analysis; assay type: ADME, organism-based; parameters: dose 50 mg/kg, time < 24 hrs, route po; settings: in vivo
# H1975-TM [21] = assay: Downregulation of ERK level in human H1975-TM cells at 50 to 1000 nM measured after 24 hrs by Western blot analysis; assay type: functional, cell-based; settings: dose 50-1000 nM
# [22] = Induction of cell cycle arrest in human H1975-TM cells assessed as accumulation at G0/G1 phase at 250 nM measured after 24 hrs by RNase A/propidium iodide staining based flow cytometric analysis (reference value: 64.3 %); assay type: functional
# H1975-TM [23] = assay: Downregulation of EGFR phosphorylation in human H1975-TM cells at 50 to 1000 nM measured after 24 hrs by Western blot analysis; assay type: functional, cell-based; settings: dose 50-1000 nM
# [24] = Tmax in Sprague-Dawley rat at 50 mg/kg, po measured upto 24 hrs by HPLC-MS/MS analysis; assay type: ADME, organism-based; settings: in vivo
# [25] = Induction of cell cycle arrest in human H1975-TM cells assessed as accumulation at S phase at 500 nM measured after 24 hrs by RNase A/propidium iodide staining based flow cytometric analysis (reference value: 18.1 %); assay type: functional
# [26] = Half life in Sprague-Dawley rat at 5 mg/kg, iv measured upto 24 hrs by HPLC-MS/MS analysis; assay type: ADME, organism-based; settings: in vivo
# H1975-TM [27] = assay: Downregulation of AKT level in human H1975-TM cells at 50 to 1000 nM measured after 24 hrs by Western blot analysis; assay type: functional, cell-based; settings: dose 50-1000 nM
# [28] = Induction of apoptosis in human H1975-TM cells assessed as apoptotic cells at 250 nM measured after 24 by Annexin V-FITC and propidium iodide staining based flow cytometric analysis (reference value: 7.08 %); assay type: functional; settings: time 24 hrs
# [29] = molecular target: Epidermal growth factor receptor (Homo sapiens, UniProt P00533, C797S/L858R/T790M)
# [30] = Toxicity in BALB/c mouse xenografted with human H1975-TM cells assessed as appearance of lesions in heart at 25 to 100 mg/kg, po measured after 25 days by hematoxylin-eosin staining based analysis; assay type: organism-based; settings: in vivo, 600 h, dose 25-100 mg/kg, time 25 day
# [31] = Induction of cell cycle arrest in human H1975-TM cells assessed as accumulation at G0/G1 phase at 50 nM measured after 24 hrs by RNase A/propidium iodide staining based flow cytometric analysis (reference value: 64.3 %); assay type: functional
# A-431 = assay: Antiproliferative activity against human A-431 cells assessed as inhibition of cell growth measured after 72 hrs by CCK8 assay; assay type: functional, cell-based; settings: A-431, 72 h
# [32] = Induction of cell cycle arrest in human H1975-TM cells assessed as accumulation at G2/M phase at 250 nM measured after 24 hrs by RNase A/propidium iodide staining based flow cytometric analysis (reference value: 17.6 %); assay type: functional
# NCI-H1975 = assay: Antiproliferative activity against human NCI-H1975 cells assessed as inhibition of cell growth measured after 72 hrs by CCK8 assay; assay type: functional, cell-based; settings: NCI-H1975, 72 h
# [33] = Downregulation of EGFR phosphorylation in human H1975-TM cells at 1000 nM measured after 24 hrs by Western blot analysis; assay type: functional
# [34] = Toxicity in BALB/c mouse xenografted with human H1975-TM cells assessed as change in body weight at 25 to 100 mg/kg, po measured after 25 days; assay type: organism-based; settings: in vivo, 600 h, dose 25-100 mg/kg, time 25 day
# PC-9 [35] = assay type: functional, cell-based; settings: Homo sapiens, PC-9, 72 h
# Chain of Epidermal growth factor receptor (Homo sapiens, UniProt P00533, C797S/L858R/T790M) (P00533 25-1210 T790M/C797S/L858R limits assumed): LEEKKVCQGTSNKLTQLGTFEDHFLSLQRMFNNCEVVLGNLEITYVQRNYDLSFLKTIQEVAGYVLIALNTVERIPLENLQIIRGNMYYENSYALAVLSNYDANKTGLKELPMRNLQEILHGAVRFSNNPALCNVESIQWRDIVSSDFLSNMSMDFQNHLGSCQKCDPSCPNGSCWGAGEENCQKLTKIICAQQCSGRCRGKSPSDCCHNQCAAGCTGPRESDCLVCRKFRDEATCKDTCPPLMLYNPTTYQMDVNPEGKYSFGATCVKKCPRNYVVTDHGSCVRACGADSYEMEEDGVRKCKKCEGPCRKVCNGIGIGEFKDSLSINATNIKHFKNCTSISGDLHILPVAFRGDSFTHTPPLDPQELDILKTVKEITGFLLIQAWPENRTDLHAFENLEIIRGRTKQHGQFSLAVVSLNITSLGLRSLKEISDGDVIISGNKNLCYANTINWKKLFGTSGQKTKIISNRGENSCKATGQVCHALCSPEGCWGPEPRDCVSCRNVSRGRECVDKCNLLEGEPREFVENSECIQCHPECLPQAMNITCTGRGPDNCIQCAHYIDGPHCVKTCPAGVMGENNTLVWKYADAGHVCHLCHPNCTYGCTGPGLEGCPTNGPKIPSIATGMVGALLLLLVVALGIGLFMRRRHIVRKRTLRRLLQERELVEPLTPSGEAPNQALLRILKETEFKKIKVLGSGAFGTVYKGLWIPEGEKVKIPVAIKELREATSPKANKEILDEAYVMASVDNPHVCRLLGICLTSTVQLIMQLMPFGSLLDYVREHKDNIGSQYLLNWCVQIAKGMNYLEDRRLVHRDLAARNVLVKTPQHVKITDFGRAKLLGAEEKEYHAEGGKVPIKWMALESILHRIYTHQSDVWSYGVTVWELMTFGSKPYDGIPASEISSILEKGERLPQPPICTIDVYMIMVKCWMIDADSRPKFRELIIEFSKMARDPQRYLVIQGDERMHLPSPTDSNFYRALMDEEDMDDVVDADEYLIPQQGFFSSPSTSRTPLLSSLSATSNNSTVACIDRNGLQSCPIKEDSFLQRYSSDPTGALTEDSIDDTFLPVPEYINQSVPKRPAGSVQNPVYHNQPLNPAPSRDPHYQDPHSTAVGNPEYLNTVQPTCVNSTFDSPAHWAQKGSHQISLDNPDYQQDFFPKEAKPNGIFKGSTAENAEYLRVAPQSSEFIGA
# Chain of Epidermal growth factor receptor (Homo sapiens, UniProt P00533, L858R) (P00533 25-1210 L858R limits assumed): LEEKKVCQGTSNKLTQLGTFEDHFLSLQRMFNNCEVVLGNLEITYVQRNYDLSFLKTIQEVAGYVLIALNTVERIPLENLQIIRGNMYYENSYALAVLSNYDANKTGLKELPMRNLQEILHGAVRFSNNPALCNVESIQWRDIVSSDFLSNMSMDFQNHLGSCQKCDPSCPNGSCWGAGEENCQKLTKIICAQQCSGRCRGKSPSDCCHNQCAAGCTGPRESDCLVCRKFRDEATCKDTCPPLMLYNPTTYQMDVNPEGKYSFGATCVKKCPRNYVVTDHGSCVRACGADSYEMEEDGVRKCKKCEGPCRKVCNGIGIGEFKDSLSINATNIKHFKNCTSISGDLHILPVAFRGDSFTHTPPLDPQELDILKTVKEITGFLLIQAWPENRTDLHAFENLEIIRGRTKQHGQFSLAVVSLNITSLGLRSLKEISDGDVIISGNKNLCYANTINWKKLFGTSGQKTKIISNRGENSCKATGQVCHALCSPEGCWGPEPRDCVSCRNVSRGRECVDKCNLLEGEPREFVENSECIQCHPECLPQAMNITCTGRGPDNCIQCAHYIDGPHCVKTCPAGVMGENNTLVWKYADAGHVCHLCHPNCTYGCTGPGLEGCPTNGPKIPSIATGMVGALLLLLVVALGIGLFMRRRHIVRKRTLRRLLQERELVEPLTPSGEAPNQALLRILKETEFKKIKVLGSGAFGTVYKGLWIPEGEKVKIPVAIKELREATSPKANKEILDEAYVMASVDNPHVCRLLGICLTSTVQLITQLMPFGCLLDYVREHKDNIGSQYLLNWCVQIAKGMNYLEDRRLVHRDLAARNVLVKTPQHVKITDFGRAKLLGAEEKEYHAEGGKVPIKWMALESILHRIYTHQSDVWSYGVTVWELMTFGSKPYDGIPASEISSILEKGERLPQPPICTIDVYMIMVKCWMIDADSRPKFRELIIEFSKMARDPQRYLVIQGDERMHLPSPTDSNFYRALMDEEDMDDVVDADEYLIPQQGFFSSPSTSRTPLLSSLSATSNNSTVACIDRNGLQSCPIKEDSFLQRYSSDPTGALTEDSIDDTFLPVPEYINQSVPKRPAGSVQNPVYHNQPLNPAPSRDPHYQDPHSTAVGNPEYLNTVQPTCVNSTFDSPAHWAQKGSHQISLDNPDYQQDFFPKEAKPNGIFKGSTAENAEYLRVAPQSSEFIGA
# Chain of Epidermal growth factor receptor (Homo sapiens, UniProt P00533) (P00533 whole entry): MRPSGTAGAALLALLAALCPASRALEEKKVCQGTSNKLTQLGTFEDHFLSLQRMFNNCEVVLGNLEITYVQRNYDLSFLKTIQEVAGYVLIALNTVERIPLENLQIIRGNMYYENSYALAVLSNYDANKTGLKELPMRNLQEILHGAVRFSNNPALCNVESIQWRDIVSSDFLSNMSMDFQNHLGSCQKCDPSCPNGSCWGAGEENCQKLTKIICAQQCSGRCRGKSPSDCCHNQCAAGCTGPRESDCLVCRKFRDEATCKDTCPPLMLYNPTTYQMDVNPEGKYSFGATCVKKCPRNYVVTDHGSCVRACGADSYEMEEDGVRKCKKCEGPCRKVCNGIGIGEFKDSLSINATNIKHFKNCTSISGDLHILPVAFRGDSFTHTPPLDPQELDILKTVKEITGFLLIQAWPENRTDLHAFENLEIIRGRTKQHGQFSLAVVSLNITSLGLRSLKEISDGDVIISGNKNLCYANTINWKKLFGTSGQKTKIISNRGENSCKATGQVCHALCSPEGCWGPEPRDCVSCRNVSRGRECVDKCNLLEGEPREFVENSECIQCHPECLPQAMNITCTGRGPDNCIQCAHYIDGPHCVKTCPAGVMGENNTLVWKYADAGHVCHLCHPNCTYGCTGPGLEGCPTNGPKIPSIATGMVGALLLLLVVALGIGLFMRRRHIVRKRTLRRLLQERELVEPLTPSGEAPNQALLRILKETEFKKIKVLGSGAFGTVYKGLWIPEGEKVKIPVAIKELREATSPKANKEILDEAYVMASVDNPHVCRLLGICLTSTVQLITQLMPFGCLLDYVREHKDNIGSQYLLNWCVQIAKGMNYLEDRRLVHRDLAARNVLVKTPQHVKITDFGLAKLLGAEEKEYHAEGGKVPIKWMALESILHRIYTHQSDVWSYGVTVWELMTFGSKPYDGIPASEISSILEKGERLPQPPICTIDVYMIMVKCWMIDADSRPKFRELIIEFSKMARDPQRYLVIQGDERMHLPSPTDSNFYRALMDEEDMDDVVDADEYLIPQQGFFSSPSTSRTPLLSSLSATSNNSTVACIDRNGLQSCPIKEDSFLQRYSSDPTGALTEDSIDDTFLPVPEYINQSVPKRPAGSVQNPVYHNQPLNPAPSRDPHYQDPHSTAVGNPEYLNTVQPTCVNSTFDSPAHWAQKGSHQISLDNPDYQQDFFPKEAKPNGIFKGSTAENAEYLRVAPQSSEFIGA
smiles,measurement,setting,value
CCS(=O)(=O)N1CCC(c2nc(-c3ccc(F)cc3)c(-c3ccnc(Nc4ccc5c(ccn5CCN(C)C)c4)n3)s2)CC1,MRT inf,[1],4.37 h
same,inhibition,H1975-TM [2],Dose-Dependent Effect
same,Activity,[3],17.3%
same,Activity,[4],27.8%
same,TGI,[5],47.5%
same,IC50,PC-9 [6],5 nM
same,Activity,[7],19.07%
same,Activity,[8],Non-Toxic
same,half-life,[9],8.49 h
same,IC50,[10],106 nM
same,Activity,[11],15.7%
same,AUC(0-inf),[12],1560 ng·h/mL
same,Activity,[13],Non-Toxic
same,IC50,[14],3 nM
same,Activity,[15],Non-Toxic
same,Cmax,[16],761 ng/mL
same,bioavailability,[17],30.7%
same,Activity,[18],Non-Toxic
same,AUC(0-inf),[19],4780 ng·h/mL
same,Cmax,[20],404 ng/mL
same,Activity,H1975-TM [21],Active
same,Activity,[22],70.3%
same,Activity,H1975-TM [23],Active
same,Tmax,[24],2 h
same,Activity,[25],10.3%
same,half-life,[26],4.7 h
same,Activity,H1975-TM [27],Active
same,Activity,[28],19.88%
same,IC50,[29],5.1 nM
same,Activity,[30],Non-Toxic
same,Activity,[31],68.3%
same,IC50,A-431,1400 nM
same,Activity,[32],14%
same,IC50,NCI-H1975,210 nM
same,Activity,[33],100%
same,Activity,[34],Non-Toxic
same,IC50,PC-9 [35],30 nM
